Assay results reported in US10213415B2, “Compounds as opioid receptor modulators” (JANSSEN PHARMACEUTICA NV, priority 2004, dated 2019).
Like-named read-outs stand apart in the source and are kept apart here.

Assays:
[1] = molecular target: T1, delta opioid receptor (NG108-15 cell membranes) (Mus musculus, UniProt P32300); experiment: Delta Opioid Receptor Functional Assay: [35S]GTPγS Binding in NG108-15 Cell Membranes, Version 2; type: biochemical; conditions: NG108-15 cell membranes, version 2; for EC50: [35S]GTPγS, read-out: DOR GTP-binding Assay_v2_ EC50; for DOR GTP-binding Assay v2 (% I): % inhibition of agonist-stimulated GTPγS binding
T1 construct: NG108-15 cell membranes were purchased from Applied Cell Sciences (Rockville, Md.); host or cells: NG108-15 cells (membranes purchased)
Procedure: NG108-15 cell membranes were purchased from Applied Cell Sciences (Rockville, Md.). 8 mg/ml of membrane protein suspended in 10 mM TRIS-HC pH 7.2, 2 mM EDTA, 10% sucrose.
Membranes were maintained at 4-8° C. A portion (1 ml) of membranes was added into 10 ml cold binding assay buffer. The assay buffer contained 50 mM Tris, pH 7.6, 5 mM MgCl2, 100 mM NaCl, 1 mM DTT and 1 mM EGTA. The membrane suspension was homogenized with a Polytron for 2 times and centrifuged at 3000 rpm for 10 min. The supernent was then centrifuged at 18,000 rpm for 20 min. The pellet was saved in a tube and 10 ml assay buffer was added into the tube. The pellet and buffer were mixed with a Polytron.
The pellet membranes (75 μg/ml) were preincubated with SPA (10 mg/ml) at 25° C. for 45 min in the assay buffer. The SPA (5 mg/ml) coupled with membranes (37.5 μg/ml) was then incubated with 0.1 nM [^35S] GTPγS in the same Tris buffer containing 100 μM GDP in total volume of 200 μl. Increasing concentrations of receptor agonists were used to stimulate [^35S] GTPγS binding. The basal binding was tested in the absent agonists and no specific binding was tested in the present 10 μM unlabeled GTPγS. The data were analyzed on a Top counter.
[formula] % Inhibition=(% stimulation by 1 μM SNC80−% stimulation by 1 μM SNC80 in presence of test compound)×100/(% Stimulation by 1 μM SNC80−100) % of Basal=(stimulate−non specific)*100/(basal−non specific). EC50 values were calculated using GraphPad Prism.

[2] = molecular target: T2, delta opioid receptor (Rattus norvegicus, UniProt P33533); experiment: Rat Brain Delta Opioid Receptor Binding Assay ([3H]DPDPE); conditions: rat forebrain membranes, margin of error 10-20%, read-out: r Ki δ
T2 construct: from tissue; host or cells: forebrain of male Wistar rats
How it was run: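 Rat (male Wistar) forebrain membranes in 50 mM Tris-HCl pH 7.4 with 5 mM MgCl2, incubated with ~4 nM [3H]DPDPE for 2.5 h at 25 °C. Bound ligand collected by filtration and scintillation counting. Single-concentration data given as % inhibition of specific binding; concentration series fitted to Ki.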

[3] = molecular target: T3, mu opioid receptor (CHO-hMOR cell membranes) (Homo sapiens, UniProt P35372); experiment: Mu Opioid Receptor Functional Assay: [35S]GTPγS Binding in CHO-hMOR Cell Membranes, Versions 1 and 2; type: biochemical; conditions: for MOR GTP binding assay_v2 (% I): version 2, % inhibition of agonist-stimulated GTPγS binding; for EC50: version 2, read-out: MOR GTP binding assay v2 EC50; for MOR GTP binding assay_v1 (% I): version 1, % inhibition of agonist-stimulated GTPγS binding; for MOR GTP assay_v1 % of Basal: version 1, basal binding = 100%
T3 construct: purchased Receptor Biology, Inc. (Baltimore, Md.); host or cells: CHO cells (recombinant expression)
How it was run: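 CHO-hMOR membranes (10 μg/ml) on WGA SPA beads, preincubated 45 min at 25 °C, then incubated with 0.5 nM [35S]GTPγS in HEPES pH 7.6, 5 mM MgCl2, 100 mM NaCl, 1 mM DTT, 1 mM EDTA. Non-specific binding with 10 μM unlabeled GTPγS; agonist EC50 from concentration-response, antagonism as inhibition of 1 μM SNC80-stimulated binding.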

[4] = molecular target: T4, mu opioid receptor (Rattus norvegicus, UniProt P33535); experiment: Rat Brain Mu Opioid Receptor Binding Assay (and Version 2a, [3H]DAMGO); conditions: rat forebrain membranes, margin of error 10-20%, read-out: r Ki μ
T4 construct: from tissue; host or cells: forebrain of male Wistar rats
How it was run: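 Rat forebrain membranes from male Wistar rats in 50 mM Tris-HCl pH 7.4 with 5 mM MgCl2 incubated with 0.8 nM [3H]DAMGO for 2.5 h at 25° C., then filtered and counted. Data given as % inhibition of specific binding at single concentrations or as Ki from concentration series.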

[5] = molecular target: T5, human delta subtype 2 opioid receptor (Homo sapiens, UniProt P41143); experiment: Human Delta Opioid Receptor Binding Assay (CHO membranes, 3H-Naltrindole); conditions: read-out: hKi δ
T5 construct: purchased Perkin Elmer RBHODM400UA; host or cells: Chinese Hamster Ovary cells (recombinant expression)
How it was run: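 Filtration binding on CHO-cell membranes expressing the human receptor, in 50 mM Tris pH 7.5 with 5 mM MgCl2, 30 min at room temperature; 3H-naltrindole diluted to 6 nM before mixing 1:1 with compound. Nonspecific binding defined with 1 μM unlabelled naltrindole; inhibition relative to no-inhibitor wells.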

[6] = molecular target: T6, delta opioid receptor (CHO-hδ cell membranes) (Homo sapiens, UniProt P41143); experiment: Delta Opioid Receptor Functional Assay: [35S]GTPγS Binding in CHO-hδ Cell Membranes, Version 1; type: biochemical; conditions: read-out: DOR GTP-binding Assay_v1 EC50
T6 construct: purchased Receptor Biology, Inc. (Baltimore, Md.); host or cells: CHO cells (recombinant expression)
Procedure: CHO-hδ cell membranes were purchased from Receptor Biology, Inc. (Baltimore, Md.). 10 mg/ml of membrane protein suspended in 10 mM TRIS-HC pH 7.2, 2 mM EDTA, 10% sucrose.
Membranes were maintained at 4-8° C. A portion (1 ml) of membranes was added into 15 mL cold binding assay buffer. The assay buffer contained 50 mM HEPES, pH 7.6, 5 mM MgCl2, 100 mM NaCl, 1 mM DTT and 1 mM EDTA. The membrane suspension was homogenized with a Polytron for 2 times and centrifuged at 3000 rpm for 10 min. The supernent was then centrifuged at 18,000 rpm for 20 min. The pellet was saved in a tube and 10 ml assay buffer was added into the tube. The pellet and buffer were mixed with a Polytron.
The pellet membranes (20 μg/ml) were preincubated with SPA (10 mg/ml) at 25° C. for 45 min in the assay buffer. The SPA (5 mg/ml) coupled with membranes (10 μg/ml) was then incubated with 0.5 nM [^35S]GTPγS in the same HEPES buffer containing 50 μM GDP in total volume of 200 μl. Increasing concentrations of receptor agonists were used to stimulate [^35S]GTPγS binding. The basal binding was tested in the absent agonists and no specific binding was tested in the present 10 μM unlabeled GTPγS. The data were analyzed on a Top counter.
Data The % of Basal=(stimulate−non specific)*100/(basal−non specific). EC50 values were calculated using a Prism program.

[7] = molecular target: T7, human mu opioid receptor (Homo sapiens, UniProt P35372); experiment: Human Mu Opioid Receptor Binding Assay (CHO membranes, 3H-Damgo); conditions: read-out: hKi μ
T7 construct: purchased Perkin Elmer RBHOMM400UA; host or cells: Chinese Hamster Ovary cells (recombinant expression)
How it was run: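 Membranes from CHO cells expressing human mu opioid receptor, 300 μg/mL, in 50 mM Tris pH 7.5, 5 mM MgCl2. Incubated with compound and ³H-Damgo (3.6 nM before mixing) for 2 h at room temperature, filtered, counted by scintillation. Nonspecific binding with 1 μM unlabelled Damgo.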

[8] = test system: novel environment-stressed mice; experiment: In Vivo Assay-Stress-Induced Fecal Output (Fecal Output for 1 hr); set-up: species or system mouse; conditions: 1 hr; for Fecal Output (# pellets) cpd: novel environment-stressed mice; for response vs control in vivo at 10 mg/kg / response vs control in vivo at 30 mg/kg: Mus musculus, po, 1 h
How it was run: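 Adult male Crl:CD-1(ICR) mice (˜30-35 g; at least 10 per dose group) were split into acclimated non-stressed controls, held individually for 16-18 hr in wire-mesh-bottom cages, and non-acclimated stressed groups. Mice were dosed intragastrically with vehicle or test compound in 0.5% methylcellulose, housed individually in novel cages over absorbent cardboard, and fecal pellets per mouse were counted hourly.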

T4 sequence (P33535 whole entry): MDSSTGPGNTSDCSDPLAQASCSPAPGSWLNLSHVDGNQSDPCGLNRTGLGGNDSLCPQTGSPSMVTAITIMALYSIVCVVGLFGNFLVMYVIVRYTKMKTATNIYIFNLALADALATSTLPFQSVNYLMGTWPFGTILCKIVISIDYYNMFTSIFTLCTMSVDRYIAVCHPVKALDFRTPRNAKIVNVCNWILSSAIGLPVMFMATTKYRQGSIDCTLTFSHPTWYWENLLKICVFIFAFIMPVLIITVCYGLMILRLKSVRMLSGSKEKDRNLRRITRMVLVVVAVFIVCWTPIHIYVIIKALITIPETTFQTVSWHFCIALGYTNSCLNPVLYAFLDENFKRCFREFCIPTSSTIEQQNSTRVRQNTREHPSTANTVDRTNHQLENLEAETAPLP
T6 sequence (P41143 whole entry): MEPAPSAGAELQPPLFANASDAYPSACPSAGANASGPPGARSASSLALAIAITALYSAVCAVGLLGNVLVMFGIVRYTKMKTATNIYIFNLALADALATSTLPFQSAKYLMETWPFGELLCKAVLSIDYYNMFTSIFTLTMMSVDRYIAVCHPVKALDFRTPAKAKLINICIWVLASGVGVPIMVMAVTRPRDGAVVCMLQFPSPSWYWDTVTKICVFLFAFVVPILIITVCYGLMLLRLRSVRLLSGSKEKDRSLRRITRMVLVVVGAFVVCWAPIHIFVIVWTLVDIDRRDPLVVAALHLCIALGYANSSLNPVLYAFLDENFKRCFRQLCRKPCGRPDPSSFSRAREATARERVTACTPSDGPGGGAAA
T1 sequence (P32300 whole entry): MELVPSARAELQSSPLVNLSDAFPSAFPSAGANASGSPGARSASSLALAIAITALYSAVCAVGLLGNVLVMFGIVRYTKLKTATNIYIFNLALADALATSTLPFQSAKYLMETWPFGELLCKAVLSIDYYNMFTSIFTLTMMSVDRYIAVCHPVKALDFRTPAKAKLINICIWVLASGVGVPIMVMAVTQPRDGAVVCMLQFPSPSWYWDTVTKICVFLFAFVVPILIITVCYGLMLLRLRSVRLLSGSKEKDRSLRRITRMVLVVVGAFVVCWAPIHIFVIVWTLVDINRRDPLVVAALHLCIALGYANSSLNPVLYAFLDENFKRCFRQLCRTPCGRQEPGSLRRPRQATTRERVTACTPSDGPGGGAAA
T2 sequence (P33533 whole entry): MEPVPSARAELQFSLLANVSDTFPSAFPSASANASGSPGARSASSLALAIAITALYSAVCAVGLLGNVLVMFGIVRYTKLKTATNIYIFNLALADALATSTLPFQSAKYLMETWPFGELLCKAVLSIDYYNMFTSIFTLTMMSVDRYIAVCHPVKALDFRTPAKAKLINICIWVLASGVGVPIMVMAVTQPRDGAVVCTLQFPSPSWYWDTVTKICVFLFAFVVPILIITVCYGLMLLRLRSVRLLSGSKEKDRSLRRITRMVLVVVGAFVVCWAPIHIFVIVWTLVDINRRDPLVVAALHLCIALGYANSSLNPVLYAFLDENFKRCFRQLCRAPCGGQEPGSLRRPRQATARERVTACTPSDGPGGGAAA
T3 sequence (P35372 whole entry): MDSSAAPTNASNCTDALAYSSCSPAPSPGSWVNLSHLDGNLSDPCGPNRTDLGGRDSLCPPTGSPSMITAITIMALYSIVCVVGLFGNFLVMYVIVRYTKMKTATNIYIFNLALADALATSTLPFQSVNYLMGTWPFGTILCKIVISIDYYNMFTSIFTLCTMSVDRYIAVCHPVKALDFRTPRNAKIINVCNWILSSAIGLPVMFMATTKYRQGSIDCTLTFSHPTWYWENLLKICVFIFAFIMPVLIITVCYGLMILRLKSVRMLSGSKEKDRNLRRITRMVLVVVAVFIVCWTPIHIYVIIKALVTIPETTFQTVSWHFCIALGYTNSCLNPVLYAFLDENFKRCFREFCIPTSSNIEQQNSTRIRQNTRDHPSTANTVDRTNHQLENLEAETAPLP
T7 sequence (P35372 whole entry): as above
T5 sequence (P41143 whole entry): as the sequence (P41143 whole entry) above

| Structure (SMILES) | EC50 [1] | DOR GTP-binding Assay v2 (% I) [1] | Ki [2] | MOR GTP binding assay_v2 (% I) [3] | EC50 [3] | Ki [4] | Ki [7] | also measured |
| --- | --- | --- | --- | --- | --- | --- | --- | --- |
| COc1ccc(CN(C(=O)[C@@H](N)Cc2c(C)cc(C(N)=O)cc2C)[C@@H](C)c2nc(-c3ccccc3)c[nH]2)cc1C(N)=O [Cpd 295] | 2.2 nM | 71.66% | 3.95 nM | 8.21% | 1.4 nM | 0.18 nM | – | – |
| Cc1cc(O)cc(C)c1C[C@H](N)C(=O)N(Cc1nc(-c2ccccc2Cl)c(C)[nH]1)C(C)C [Cpd 155] | – | – | – | – | – | – | – | Ki [5]: 345 nM; MOR GTP binding assay_v1 (% I) [3]: 14.32%; MOR GTP assay_v1 % of Basal [3]: 655.93%; EC50 [6]: 150 nM |
| COc1ccc(CN(C(=O)[C@@H](N)Cc2c(C)cc(C(N)=O)cc2C)[C@@H](C)c2nc(-c3ccccc3)c[nH]2)cc1C(=O)NC1CC1 [Cpd 300] | 32 nM | – | 0.29 nM | 15.40% | 2.6 nM | 0.09 nM | – | – |
| C[C@@H](c1nc(-c2ccccc2)c[nH]1)N(Cc1cccc(-c2nnn[nH]2)c1)C(=O)[C@@H](N)Cc1ccc(C(N)=O)cc1 [Cpd 267] | 6 nM | 31.76% | 0.46 nM | – | – | 1.53 nM | 6.88 nM | – |
| COc1ccc(CN(C(=O)[C@@H](N)Cc2c(C)cc(C(N)=O)cc2C)[C@@H](C)c2nc(-c3ccccc3C(=O)O)c[nH]2)cc1OC [Cpd 29] | > 10000 nM | 79.05% | 28 nM | – | – | 25 nM | 38 nM | – |
| Cc1cc(C(N)=O)cc(C)c1C[C@H](N)C(=O)N(C)[C@@H](C)c1nc(-c2ccccc2)c[nH]1 [Cpd 196] | – | – | – | – | – | – | – | Fecal Output (# pellets) cpd ([8]; 10 mg/kg oral): 9.2 pellets; Fecal Output (# pellets) cpd ([8]; 30 mg/kg oral): 4.3 pellets; response vs control in vivo at 10 mg/kg ([8]; 10 mg/kg oral, relative to acclimated control, read-out: Fecal Output cpd % control): 249%; response vs control in vivo at 10 mg/kg ([8]; 10 mg/kg oral, relative to novel environment stress (NES) vehicle group, read-out: Fecal Output cpd % NES): 65.7%; response vs control in vivo at 30 mg/kg ([8]; 30 mg/kg oral, relative to acclimated control, read-out: Fecal Output cpd % control): 391%; response vs control in vivo at 30 mg/kg ([8]; 30 mg/kg oral, relative to novel environment stress (NES) vehicle group, read-out: Fecal Output cpd % NES): 45.3%; MOR GTP binding assay_v1 (% I) [3]: 1.00%; MOR GTP assay_v1 % of Basal [3]: 620.00%; EC50 [6]: 24 nM |
| COC(=O)c1cccc(CN(C(=O)[C@@H](N)Cc2c(C)cc(C(N)=O)cc2C)[C@@H](C)c2nc(-c3ccccc3)c[nH]2)c1 [Cpd 9] | 3.4 nM | 67.13% | 0.11 nM | – | – | 0.16 nM | 10.9 nM | – |
| Cc1cc(O)cc(C)c1C[C@H](N)C(=O)N(C)[C@@H](CC(C)C)c1nc(-c2ccccc2)c[nH]1 [Cpd 174] | – | – | – | – | – | – | – | MOR GTP binding assay_v1 (% I) [3]: 42.00%; MOR GTP assay_v1 % of Basal [3]: 864.00%; EC50 [6]: 20 nM |
| COc1ccc(CN(C(=O)[C@@H](N)Cc2c(C)cc(C(N)=O)cc2C)[C@@H](C)c2nc(-c3ccccc3)c[nH]2)cc1C(=O)NCCO [Cpd 299] | 2.3 nM | – | 1.16 nM | 12.11% | 1 nM | 0.44 nM | – | – |
| COc1ccc(CN(C(=O)[C@@H](N)Cc2c(C)cc(C(N)=O)cc2C)[C@@H](C)c2nc(-c3ccccc3)c[nH]2)cc1C(=O)N1CCOCC1 [Cpd 296] | 7.9 nM | 69.41% | 2.2 nM | 9.35% | 2.2 nM | 0.49 nM | – | – |
| COc1ccc(CN(C(=O)[C@@H](N)Cc2c(C)cc(O)cc2C)[C@@H](C)c2nc(-c3ccccc3)c[nH]2)c2ccccc12 [Cpd 247] | 44 nM | 41.89% | 0.4 nM | – | – | 0.61 nM | – | – |
| Cc1cc(C(N)=O)cc(C)c1C[C@H](N)C(=O)N(Cc1ccccc1C(N)=O)[C@@H](C)c1nc(-c2ccccc2)c[nH]1 [Cpd 1] | 88 nM | 22.10% | 13.2 nM | – | – | 1.1 nM | 3.6 nM | – |
| Cc1cc(O)cc(C)c1C[C@H](N)C(=O)N(Cc1ccc(OC(F)(F)F)cc1)[C@@H](C)c1nc(-c2ccccc2)c[nH]1 [Cpd 248] | 15 nM | 31.72% | 0.44 nM | – | – | 0.11 nM | – | – |
